Results reported in patent US20230330020A1, “MEDICATION THAT PROTECTS THE INTESTINAL MICROBIOTA AND THEIR PREPARATION METHODS AND APPLICATIONS” (priority 2020, published 2023).

Assays:
Streptococcus pneumoniae = assay: Mouse pneumonia induced by intranasal Streptococcus pneumoniae, oral treatment; format: in vivo, mice
Procedure: In one implementation, the effectiveness of orally administered ampicillin wrapped in PGNPs for treating mouse pneumonia was validated. Firstly, we induced mouse pneumonia by intranasally administering Streptococcus pneumoniae. At 2 and 8 hours post-induction, the mice received either ampicillin encapsulated in PGNPs or free ampicillin treatment. At 24 hours post-infection, the number of Streptococcus pneumoniae in the mouse lungs and the proportion of neutrophil infiltration were analyzed.
Mice were divided into four groups, with two control groups receiving no ampicillin treatment and two treatment groups receiving ampicillin treatment after infection, with at least 3 mice per group. Mouse pneumonia was induced by intranasal inoculation of 3×10^8 CFUs of Streptococcus pneumoniae. After infection, mice were orally treated with either free ampicillin or PGNPs encapsulated with ampicillin (40 mg kg^−1) at 2 hours and 8 hours post-infection. After 24 hours of infection, the number of Streptococcus pneumoniae in the lungs was measured. Mouse lung tissues were collected and homogenized in sterile PBS, diluted 10-fold in PBS, and plated for colony counting. The proportion of neutrophil infiltration in the lungs of the mice was determined by staining the lung tissues with antibodies and analyzing with a flow cytometer.

[1] = system: ampicillin resistance gene ampC; assay: Real-time quantitative PCR of resistance gene ampC and total bacterial 16S rRNA in fecal DNA; format: in vivo, mice; details: oral 20 mg kg^-1 once a day 5 days; feces; vs control
Procedure: We orally administered PGNPs-encapsulated ampicillin and free ampicillin to 6-8 weeks old mice for 5 consecutive days, once a day, while the control group was not given any ampicillin treatment. At specific time points during and after the antibiotic treatment period, we collected fecal samples from the mice, extracted DNA, determined DNA concentration, diluted to 10 ng μL^−1, and analyzed the copy number of the ampicillin resistance gene ampC using real-time fluorescence quantitative PCR.
Mice were divided into four groups, with 6 mice in each group. The control group was not treated with antibiotics, while the experimental group was given free antibiotics or antibiotics encapsulated in PGNPs prepared as described above. The experimental group mice were orally administered ampicillin (20 mg kg^−1) and PGNPs- encapsulated ampicillin once a day for 5 consecutive days. At specific time points, mouse feces were collected, and total DNA was extracted from fecal samples, and the concentration was measured. Real-time quantitative PCR was used to amplify the ampicillin resistance gene ampC and the total bacterial 16S rRNA in fecal DNA, and the copy numbers of the two genes were calculated to determine the effect of the two different antibiotic treatments on the abundance of antibiotic-resistant bacteria in the gut.

[2] = Loading rate (encapsulation efficiency) of antibiotics in PGNPs by double emulsion, single emulsion and dialysis; format: physicochemical; details: hydrophobic antibiotics; Gluc-PEG-PLGA + cationic lipid
Source text: In one implementation, we used a double-emulsification method to encapsulate hydrophilic antibiotics such as ampicillin and erythromycin, and measured an encapsulation efficiency of 50%-60%. Using a dialysis method, we encapsulated hydrophobic antibiotics such as metronidazole and achieved an encapsulation efficiency of 25%. Encapsulation of hydrophobic antibiotics such as metronidazole using a single-emulsification method yielded an encapsulation efficiency of 20%-40%. Various types of antibiotics with different properties can be encapsulated in nanoparticles using methods such as single-emulsification, double-emulsification, and dialysis, as shown in FIG. 3. The double-emulsification method yielded the highest encapsulation efficiency for hydrophilic antibiotics.
For hydrophilic antibiotics, such as ampicillin and vancomycin, the double emulsion method was used for loading. A water-soluble solution (100 mg mL^−1, 30 μL) of either ampicillin or vancomycin was added to 0.5 mL of dichloromethane containing 0.5 mg DOTAP and 5 mg glucose-PEG-PLGA. […] The concentration of the loaded antibiotics in the nanoparticles was measured using a UV spectrophotometer or HPLC. The loading rate was calculated by dividing the mass of loaded antibiotics by the total mass of antibiotics used for loading. […]

[3] = 40 mg kg^-1 oral at 2 h and 8 h post-infection, 24 h, vs untreated group

Row | SMILES | neutrophil proportion in the lungs (Streptococcus pneumoniae; [3]) | number of lung Streptococcus pneumoniae (Streptococcus pneumoniae; [3]) | therapeutic effect on mouse pneumonia (Streptococcus pneumoniae; oral at 2 and 8 hours post-induction, analysed at 24 hours) | copy number of gut bacterial resistance gene ampC [1] | encapsulation efficiency, dialysis method [2] [%]
1 | CC1(C)S[C@@H]2[C@H](NC(=O)[C@H](N)c3ccccc3)C(=O)N2[C@H]1C(=O)O [Free-Amp, ampicillin] | significant decrease | significant decrease | good therapeutic effects | increased sharply over time | –
2 | Cc1ncc([N+](=O)[O-])n1CCO [metronidazole] | – | – | – | – | 25
